Assays:
[1] = test system: LCC6 (wild type breast cancer cell line); experiment: Cytotoxicity test (MTS/PMS); type: cell-based; conditions: LCC-6, 72 h; 3 days at 37° C.
Excerpt: (§1) The bacterial strains used in microbial susceptibility test were E. coli, S. aureus 29213 and B. subtilis 168. E. coli and S. aureus 29213 were obtained from the laboratory of the Hong Kong Polytechnic University. B. subtilis 168 was purchased from American Type Culture Collection (USA). The mammalian cell lines L929 (mouse peritoneal fibroblast), LCC6 (a wild type breast cancer cell line), LCC6MDR (P-gp over-expressed breast cancer cell line) were stocks in our department. Nutrient Agar, tryptone and yeast extract were purchased from Oxoid Limited (Nepean, Ontario, Canada). Luria-Bertani (LB) medium was prepared from 2 g tryptone, 1 g yeast extract, and 2 g sodium chloride in 200 ml deionized water and sterilized. Müller-Hinton broth (MHB), cation-adjusted Müller-Hinton broth (MHB) and trypticase soy broth (TSB) for microbial susceptibility test were purchased from Becton, Dickinson and Company (New Jersey, USA). A microplate reader (Bio-Rad Laboratories Model 680) is used to measure bacterial growth and cytotoxicity. An Olympus FSX100® Bio Imaging Navigator Microscope was used to observe the morphology of B. subtilis cell. The cell lines used in cytotoxicity test were stocks in our department. In this assay, a mouse fibroblast cell line (L929), a wild type breast cancer cell line (LCC6) and a P-gp-over-expressed breast cancer cell line (LCC6MDR) were mixed with compounds of various concentrations and made up to a final volume of 100 μL in 96-well plates. The cells were then incubated at 37° C. for 3 days. […] The MTS/PMS mixture (10 μL) was added into each well, and the plate was incubated at 37° C. for 2 hours. The absorbance at 490 nm was then measured with a microplate absorbance reader (Bio-Rad). The IC50 values were calculated using GraphPad (Prism 4.0). The selective index of each compound was calculated from the ratio between the toxicity level of L929 and the MIC value of S. aureus 29213. […] Two promising compounds […] were chosen to test on three mammalian cell lines.

[2] = Cytotoxicity test (MTS/PMS); type: cell-based; conditions: human, LCC6MDR cells (P-gp over-expressed breast cancer cell line); 3 days at 37° C.
Excerpt: as §1

[3] = test system: L929 (mouse fibroblast cell line); experiment: Cytotoxicity test (MTS/PMS); type: cell-based; conditions: L929, 72 h, 3 days at 37° C.
Excerpt: as §1

[4] = target: T1, S. aureus FtsZ (Staphylococcus aureus, UniProt P0A031); experiment: GTPase activity assay; type: biochemical; conditions: FtsZ 7.5 μM, GTP 500 μM, 37° C. 30 minutes
T1 construct: inferred from capture on a nickel chelating column and imidazole elution; made in house; host or cells: E. coli BL21
T1 sequence (P0A031 1-390): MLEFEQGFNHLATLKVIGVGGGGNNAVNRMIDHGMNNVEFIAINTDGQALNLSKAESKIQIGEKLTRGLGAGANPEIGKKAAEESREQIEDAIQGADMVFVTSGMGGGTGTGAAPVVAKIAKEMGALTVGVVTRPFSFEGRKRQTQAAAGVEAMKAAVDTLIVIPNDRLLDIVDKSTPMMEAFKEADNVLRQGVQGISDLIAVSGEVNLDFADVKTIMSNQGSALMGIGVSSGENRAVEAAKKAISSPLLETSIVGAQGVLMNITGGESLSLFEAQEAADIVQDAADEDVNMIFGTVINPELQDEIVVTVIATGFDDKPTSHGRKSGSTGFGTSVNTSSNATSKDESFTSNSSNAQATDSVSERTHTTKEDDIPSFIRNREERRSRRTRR
Experimental: The GTPase activity of S. aureus FtsZ was determined in a 96-well microplate using a CytoPhos™ phosphate assay Biochem Kit™ (Cytoskeleton, USA) which measured the concentration of inorganic phosphate released during the hydrolysis of GTP. Recombinant S. aureus FtsZ (7.5 μM) was incubated with serial dilutions of the compounds in 50 mM MOPS buffer (pH 6.5) at 25° C. for 10 minutes. The control contained 1% DMSO only. KCl (final concentration: 200 mM) and MgCl2 (final concentration: 5 mM) were then added to the mixture. The mixture was incubated with GTP (final concentration: 500 μM) at 37° C. for 30 minutes. The insoluble polymer was removed by centrifugation at 13,500 rpm at room temperature for 1 minute. 80 μL supernatant was transferred to a well of a 96-well microplate and incubated with 120 μL of Cytophos reagent at room temperature for 10 minutes. The inorganic phosphate in the mixture was determined by measuring the absorbance at 650 nm in a 96-well microplate reader (BioRad 680). The results from the samples were reported with reference to the control. Three independent experiments were carried out for each compound concentration.

[5] = test system: MRSA strain USA300#757; experiment: Fractional Inhibitory Concentration Index (FICI) determination; type: cell-based, S. aureus
Experimental: The bacterial strains used in this study were clinically isolated MRSA strains USA300#757 and #2960 which were obtained from our laboratory. Determination of the Fractional Inhibitory Concentration Index (FICI) was adopted by the Müller-Hinton broth (MHB) dilution method as previously described. Twelve serial two-fold dilutions of PC190723, F332 and F361 were prepared in the 96-well microplate with concentration ranging from 512 to 0.25 μg/mL. […] Lastly, the compounds and the β-lactams were mixed at a 1:1 ratio and subjected to two-fold dilution as described previously. Each microplate well contained 100 μL of MHB supplemented with compounds alone, β-lactams alone or the mixture of compounds and β-lactams. Overnight cultures of S. aureus in the Müller-Hinton broth was diluted to OD595 of 0.08-0.1 in saline and added in each of the microplate well. The plates were incubated at 37° C. for 20 h. All tests were performed in duplicate and the inhibition of bacterial growth was determined by visualization. The FICI of compounds and β-lactams were calculated as followed: FICI=(MIC of combination of compound and β-lactam/MIC of compound alone)+(MIC of combination of compound and β-lactam/MIC of β-lactam alone).

Row | Compound | IC50 [1] | IC50 at 3 days [2] | IC50 [3] | effect on GTPase activity of S. aureus FtsZ [4] | FICI with Ampicillin [5] | FICI with Cefotaxime [5] | FICI with Cefuroxime [5] | FICI with Cloxacillin [5] | FICI with Meropenem [5]
1 | CCCCCCCCCNc1ccc(F)c(C(N)=O)c1F [Compound F332, 2,6-difluoro-3-(nonylamino)benzamide] | 78 µM | > 100 µM | > 100 µM | no significant change of the GTPase activity | 0.52 | 0.13 | 0.09 | 1.02 | 1.06
2 | CCCCCCCCCN(C)c1ccc(F)c(C(N)=O)c1F [Compound F361, 2,6-difluoro-3-(methyl(nonyl)amino)benzamide] | 60 µM | 52 µM | 60 µM | no significant change of the GTPase activity | – | 0.38 | – | – | 1.13
